Patent US8178534B2, “cMET inhibitors” (Takeda Pharmaceutical Company Limited, priority 2008, dated 2012)
Where a name gives a salt, the structure may show the parent alone.

How the values were obtained:
[1] = system: EBC1; assay: Inhibition of cell viability (MTS), EBC1; format: cell-based; conditions: EBC1 cells, 96 hours incubation
Procedure: (§1) Cells were maintained at 37° C. in a humidified atmosphere containing 5%-8% CO2 following the instructions of the supplier (American Type Culture Collection (Rockville, Md.)). Inhibition of cell viability was determined for a panel of tumor cell lines (MKN45, EBC1 and A549), using the soluble tetrazolium salt, MTS (Promega, Madison, Wis.). Cells were seeded at 2,000-7,500 cells/well in 96-well tissue culture plates and were allowed to attach for approximately 24 hours prior to addition of compounds or DMSO vehicle. […] Cells were treated in duplicate with test compounds. Compounds were serially diluted (1:2.5) from column 1 to 11 and column 12 contained DMSO vehicle. Compounds were diluted into cell growth medium then compound solution was added to cells. Equal amounts of DMSO were added to cells (final concentration is 0.5%). After background correction and normalization against DMSO-treated cells, EC50 values were calculated using non-linear curve-fitting of the cell viability as a function of compound concentration. The MKN45 and EBC1 cell lines contain high levels of phospho-Met and are dependent on cMET for proliferation, whereas the A549 line is used as negative control.
(§2) EC50 values may be calculated by non-linear curve fitting of the compound concentrations and fluorescence intensities to the standard EC50 equation.

[2] = system: A549; assay: Inhibition of cell viability (MTS), A549 (negative control line); format: cell-based; conditions: A549 cells (negative control), 96 hours incubation
Procedure: as §1, §2

[3] = system: MKN45; assay: Inhibition of cell viability (MTS), MKN45; format: cell-based; conditions: MKN45 cells, 96 hours incubation
Procedure: as §1, §2

[4] = biological target: T1, cMET enzyme (amino acids 1023-1360) (Homo sapiens, UniProt P08581); assay: Determination of inhibition of cMET (capillary electrophoresis, phosphorylated peptide product); format: biochemical; conditions: 1.2 nM cMET, 50 μM ATP, 2 μM FL-2 peptide, 2 hours room temperature
T1 construct: The cMET enzyme (amino acids 1023-1360) nominally at 24 μM was held at −80° C. until use; His tag (N, cleaved yes); made in house; host or cells: Sf9 cells
T1 sequence (P08581 1023-1360): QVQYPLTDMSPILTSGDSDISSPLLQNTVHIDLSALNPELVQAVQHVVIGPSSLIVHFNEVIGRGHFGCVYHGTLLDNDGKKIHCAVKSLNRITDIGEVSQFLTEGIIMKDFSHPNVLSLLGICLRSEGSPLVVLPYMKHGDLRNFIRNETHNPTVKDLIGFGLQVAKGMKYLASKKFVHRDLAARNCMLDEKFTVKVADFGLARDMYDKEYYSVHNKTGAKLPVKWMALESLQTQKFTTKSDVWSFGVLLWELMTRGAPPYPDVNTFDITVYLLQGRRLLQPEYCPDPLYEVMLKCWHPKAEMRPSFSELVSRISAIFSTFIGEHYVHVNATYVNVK
Procedure: The inhibitory property of a compound relative to cMET catalysis was determined by use of capillary electrophoresis with fluorescence quantification of a phosphorylated peptide product for cMET. The cMET enzyme (amino acids 1023-1360) nominally at 24 μM was held at −80° C. until use, in a buffer containing 25 mM Tris-HCl pH 8.5, 150 mM NaCl, 3 mM DTT and 10% glycerol. […] Following purification, the tag was removed and enzyme concentrated. […] To activate the enzyme fully, frozen cMET was thawed quickly and activated with the addition of assay buffer (50 mM HEPES pH 7.5, 10 mM NaCl, 10 mM MgCl2, 0.01% Brij® 35), 1.25 mM ATP, 5 mM MgCl2 and 5 mM DTT at a cMET concentration of 2.4 μM followed by a 30 minute incubation at room temperature. […] Next, cMET enzyme (1.2 nM final) was added and the system incubated at room temperature for 20 minutes. Catalysis was initiated by the addition of ATP (50 μM final). Assays were incubated at room temperature for 2 hours then quenched by the addition of EDTA. Phosphorylated peptide product was quantified by monitoring fluorescence during capillary electrophoresis with Caliper LifeSciences LabChip 3000 under the following settings: base pressure=−0.1 psi, screen pressure=−1.2 psi, downstream voltage=−500 V, upstream voltage=−2300 V, chip type=TC372. The elution buffer was identical to the assay buffer except for the absence of DTT, FL-2 and ATP and the addition of 0.1% coating reagent (Caliper). […] Peak height was quantified and used to determine enzyme velocities.
IC50 values were calculated by non-linear least squares curve fitting of the standard IC50 equation to background-corrected cMET velocity versus compound concentration.

Row | EC50 ([2]; Homo sapiens, A549, 96 h) | EC50 ([3]; Homo sapiens, MKN-45, 96 h) | IC50 [4] | EC50 [2] | EC50 [3] | SMILES | EC50 ([1]; Homo sapiens, EBC-1, 96 h) | EC50 [1]
1 | > 50000 nM | < 30 nM | < 30 nM | – | – | CC(c1ccc2nc(NC(=O)C3CC3)cn2n1)c1nnc2ccc(-c3cccc(F)c3)cn12 (stereo not shown) [Compound 65, N-(6-(1-(6-(3-fluorophenyl)-[1,2,4]triazolo[4,3-a]pyridin-3-yl)ethyl)imidazo[1,2-b]pyridazin-2-yl)cyclopropanecarboxamide] | < 30 nM | –
2 | – | – | < 30 nM | > 50000 nM | 60 to 100 nM | CC(c1ccc2nc(NC(=O)C3CC3)cn2n1)c1nnc2ccc(-c3cnn(C)c3)cn12 (stereo not shown) [49 (free base), N-(6-(1-(6-(1-methyl-1H-pyrazol-4-yl)-[1,2,4]triazolo[4,3-a]pyridin-3-yl)ethyl)imidazo[1,2-b]pyridazin-2-yl)cyclopropanecarboxamide] | – | < 30 nM
3 | > 50000 nM | 30 to 59 nM | < 30 nM | – | – | C[C@@H](c1ccc2nc(NC(=O)C3CC3)cn2n1)c1nnc2ccc(-c3cnn(C)c3)cn12 [Compound 50, (S)—N-(6-(1-(6-(1-methyl-1H-pyrazol-4-yl)-[1,2,4]triazolo[4,3-a]pyridin-3-yl)ethyl)imidazo[1,2-b]pyridazin-2-yl)cyclopropanecarboxamide] | < 30 nM | –
4 | > 50000 nM | < 30 nM | < 30 nM | – | – | N#Cc1cccc(-c2ccc3nnc(Sc4ccc5nc(NC(=O)C6CC6)cn5n4)n3c2)c1 [Compound 104, N-(6-(6-(3-cyanophenyl)-[1,2,4]triazolo[4,3-a]pyridin-3-ylthio)imidazo[1,2-b]pyridazin-2-yl)cyclopropanecarboxamide] | < 30 nM | –
5 | > 50000 nM | 100 to 249 nM | 250 to 630 nM | – | – | Cn1cc(-c2ccc3nnc(C(F)(F)c4ccc5nc(N)cn5n4)n3c2)cn1 [Compound 99, 6-(difluoro(6-(1-methyl-1H-pyrazol-4-yl)-[1,2,4]triazolo[4,3-a]pyridin-3-yl)methyl)imidazo[1,2-b]pyridazin-2-amine] | 100 to 249 nM | –
6 | > 50000 nM | 30 to 59 nM | < 30 nM | – | – | O=C(Nc1cn2nc(Sc3nnc4ccc(-c5ccc(N6CCOCC6)nc5)cn34)ccc2n1)C1CC1 [Compound 103, N-(6-(6-(6-morpholinopyridin-3-yl)-[1,2,4]triazolo[4,3-a]pyridin-3-ylthio)imidazo[1,2-b]pyridazin-2-yl)cyclopropanecarboxamide] | < 30 nM | –
7 | – | – | > 100 nM | 8000 to 25000 nM | 100 to 199 nM | O=C(Nc1cn2nc(Sc3nnc4ccccn34)ccc2n1)C1CC1 [3 (free base), N-(6-([1,2,4]Triazolo[4,3-a]pyridin-3-ylthio)imidazo[1,2-b]pyridazin-2-yl)cyclopropanecarboxamide] | – | 60 to 100 nM
8 | > 50000 nM | < 30 nM | < 30 nM | – | – | CCOc1ccc(-c2ccc3nnc(C(C)c4ccc5nc(NC(=O)C6CC6)cn5n4)n3c2)cc1 (stereo not shown) [Compound 69, N-(6-(1-(6-(4-ethoxyphenyl)-[1,2,4]triazolo[4,3-a]pyridin-3-yl)ethyl)imidazo[1,2-b]pyridazin-2-yl)cyclopropanecarboxamide] | < 30 nM | –
9 | > 50000 nM | > 630 nM | > 100 nM | – | – | Cc1ccc2nnn(Cc3ccc4nc(NC(=O)C5CC5)cn4n3)c2c1 [Compound 12, N-(6-((6-methyl-1H-benzo[d][1,2,3]triazol-1-yl)methyl)imidazo[1,2-b]pyridazin-2-yl)cyclopropanecarboxamide] | > 200 nM | –
10 | 8000 to 25000 nM | 8000 to 25000 nM | 250 to 630 nM | – | – | O=C(Nc1cn2nc(Sc3nnc4ccc(-c5cnc(NCCCO)nc5)cn34)ccc2n1)C1CC1 [Compound 109, N-(6-(6-(2-(3-hydroxypropylamino)pyrimidin-5-yl)-[1,2,4]triazolo[4,3-a]pyridin-3-ylthio)imidazo[1,2-b]pyridazin-2-yl)cyclopropanecarboxamide] | 8000 to 25000 nM | –
11 | > 50000 nM | 100 to 249 nM | 30 to 59 nM | – | – | O=C(Nc1cn2nc(Sc3nnc4ccc(-c5csc(N6CCOCC6)n5)cn34)ccc2n1)C1CC1 [Compound 110, N-(6-(6-(2-morpholinothiazol-4-yl)-[1,2,4]triazolo[4,3-a]pyridin-3-ylthio)imidazo[1,2-b]pyridazin-2-yl)cyclopropanecarboxamide] | 30 to 59 nM | –
12 | > 50000 nM | < 30 nM | < 30 nM | – | – | CNC(=O)c1ccc(-c2ccc3nnc(C(F)(F)c4ccc5nc(NC(=O)C6CC6)cn5n4)n3c2)cc1F [Compound 98, 4-(3-((2-(cyclopropanecarboxamido)imidazo[1,2-b]pyridazin-6-yl)difluoromethyl)-[1,2,4]triazolo[4,3-a]pyridin-6-yl)-2-fluoro-N-methylbenzamide] | < 30 nM | –
13 | > 50000 nM | 250 to 630 nM | 30 to 59 nM | – | – | O=C(Nc1cn2nc(Sc3nnc4ccc(C#CCO)cn34)ccc2n1)C1CC1 [Compound 37, N-(6-(6-(3-hydroxyprop-1-ynyl)-[1,2,4]triazolo[4,3-a]pyridin-3-ylthio)imidazo[1,2-b]pyridazin-2-yl)cyclopropanecarboxamide] | 100 to 199 nM | –
14 | > 50000 nM | < 30 nM | < 30 nM | – | – | Cn1cc(-c2ccc3nnc(C(F)(F)c4ccc5nc(NC(=O)C6CC6)cn5n4)n3c2)cn1 [45 (HCl Salt), N-(6-(Difluoro(6-(1-methyl-1H-pyrazol-4-yl)-[1,2,4]triazolo[4,3-a]pyridin-3-yl)methyl)imidazo[1,2-b]pyridazin-2-yl)cyclopropanecarboxamide hydrochloride] | < 30 nM | –
15 | > 50000 nM | 250 to 630 nM | 250 to 630 nM | – | – | Cc1ccc2nnc(C(C)c3ccc4nc(NC(=O)C5CC5)cn4n3)n2c1 (stereo not shown) [Compound 53, N-(6-(1-(6-methyl-[1,2,4]triazolo[4,3-a]pyridin-3-yl)ethyl)imidazo[1,2-b]pyridazin-2-yl)cyclopropanecarboxamide] | 250 to 630 nM | –
16 | > 50000 nM | < 30 nM | 30 to 59 nM | – | – | CC(C)c1ccc(-c2ccc3nnc(C(F)(F)c4ccc5nc(NC(=O)C6CC6)cn5n4)n3c2)cc1 [Compound 80, N-(6-(difluoro(6-(4-isopropylphenyl)-[1,2,4]triazolo[4,3-a]pyridin-3-yl)methyl)imidazo[1,2-b]pyridazin-2-yl)cyclopropanecarboxamide] | 30 to 59 nM | –
17 | > 50000 nM | 30 to 59 nM | 100 to 249 nM | – | – | O=C(Nc1cn2nc(C(F)(F)c3nnc4ccc(-c5cncnc5)cn34)ccc2n1)C1CC1 [Compound 87, N-(6-(difluoro(6-(pyrimidin-5-yl)-[1,2,4]triazolo[4,3-a]pyridin-3-yl)methyl)imidazo[1,2-b]pyridazin-2-yl)cyclopropanecarboxamide] | 30 to 59 nM | –
18 | > 50000 nM | > 630 nM | > 100 nM | – | – | O=C(Nc1cn2nc(Cn3nnc4ccc(-c5cccnc5)cc43)ccc2n1)C1CC1 [Compound 16] | > 200 nM | –
19 | 8000 to 25000 nM | 100 to 249 nM | 60 to 100 nM | – | – | O=C(Nc1cn2nc(Sc3nnc4ccc(C(F)(F)F)cn34)ccc2n1)C1CC1 [Compound 41, N-(6-(6-(trifluoromethyl)-[1,2,4]triazolo[4,3-a]pyridin-3-ylthio)imidazo[1,2-b]pyridazin-2-yl)cyclopropanecarboxamide] | 35 to 99 nM | –
